The record followed here is DBAASP.

Structures are written as SMILES. In brackets after ≈: the same amount, converted by molar mass.

Experiment in all cases: ≥ marks a high value that may be exact or a test limit, other limits are often not marked, values filed in µg/mL are converted to µM
The subject of one assay is Escherichia coli D21.
Assay [1] deals with Escherichia coli ATCC 25922.
For assay [2], the system named is Staphylococcus aureus ATCC 6538.
Assay [3] concerns Staphylococcus aureus ATCC 12600.
Assay [4] relates to Streptococcus mutans ATCC 25175.
The test system of assay [5] is Pseudomonas aeruginosa ATCC 27853.
Assay [6] concerns Staphylococcus aureus ATCC 6538P.
Assay [7] has as its system Staphylococcus epidermidis ATCC 12228.
Assay [8] relates to Bacillus subtilis ATCC 6633.
In assay [9] the test system is Shigella dysenteriae ATCC 9752.
In assay [10] the test system is Micrococcus luteus ATCC 10240.
In assay [11] the test system is Salmonella enterica subsp. enterica serovar Typhimurium ATCC 14028.
Assay [12] deals with Klebsiella pneumoniae ATCC 10031.
The test system of assay [13] is Staphylococcus aureus TK784.

In the case of `CC[C@H](C)[C@H](NC(=O)[C@H](CCCCN)NC(=O)[C@H](CCCN=C(N)N)NC(=O)[C@@H](NC(=O)[C@H](CC(C)C)NC(=O)[C@H](CCC(N)=O)NC(=O)[C@@H](NC(=O)[C@H](Cc1ccc(O)cc1)NC(=O)[C@H](CCC(N)=O)NC(=O)[C@@H]1CCCN1C(=O)[C@@H](NC(=O)[C@H](CC(C)C)NC(=O)[C@@H](NC(=O)[C@H](Cc1c[nH]c2ccccc12)NC(=O)[C@H](CC(C)C)NC(=O)[C@H](CO)NC(=O)[C@@H]1CCCN1C(=O)[C@H](Cc1cnc[nH]1)NC(=O)[C@@H](N)Cc1ccccc1)C(C)C)[C@@H](C)CC)[C@@H](C)CC)[C@@H](C)CC)C(=O)N[C@@H](CC(C)C)C(=O)N[C@@H](CCCCN)C(=O)N[C@@H](CO)C(=O)NCC(=O)O` [FHPSLWVLIPQYIQLIRKILKSG], the results for the minimal inhibitory concentration (MIC) (against Escherichia coli D21; in assay [1]; in assay [2]) were no less than 50 µM, greater than 50 µM and 35.4 µM (≈ 97.2 µg/mL), respectively.
Take `CC[C@H](C)[C@H](NC(=O)[C@H](C)NC(=O)CNC(=O)[C@H](Cc1ccccc1)NC(=O)[C@H](CC(C)C)NC(=O)CN)C(=O)N[C@@H](C)C(=O)NCC(=O)N[C@@H](Cc1ccccc1)C(=O)N[C@H](C(=O)N[C@@H](CCCCN)C(=O)NCC(=O)NCC(=O)N[C@@H](Cc1c[nH]c2ccccc12)C(=O)N[C@@H](CCC(N)=O)C(=O)NCC(=O)N[C@@H](CCSC)C(=O)N[C@H](C(=O)N[C@@H](CCCCN)C(=O)NCC(N)=O)C(C)C)[C@@H](C)CC` [GLFGAIAGFIKGGWQGMVKG]: the MIC – broadly, the lowest concentration that inhibits growth of the organism – was 15.7 µM (≈ 31.3 µg/mL) in assay [3], 11.1 µM (≈ 22.1 µg/mL) in assay [4], 15.7 µM (≈ 31.3 µg/mL) in assay [1] and greater than 62.7 µM in [5].
With `CC(C)C[C@H](NC(=O)[C@H](Cc1c[nH]c2ccccc12)NC(=O)[C@H](CCCCN)NC(=O)[C@H](CCCCN)NC(=O)[C@H](CC(C)C)NC(=O)[C@H](Cc1c[nH]c2ccccc12)NC(=O)[C@H](CCCCN)NC(=O)[C@@H](N)CCCCN)C(=O)N[C@@H](CCCCN)C(N)=O` [KKWLKKWLK], the minimum inhibitory concentration (MIC) in assay [6] is 31.8 µM (≈ 40 µg/mL); in assay [7], greater than 63.6 µM; in assay [8] it was no less than 63.6 µM; in assay [1] it was 31.8 µM (≈ 40 µg/mL); in assay [9], no less than 63.6 µM; in assay [5] it was 63.6 µM (≈ 79.9 µg/mL). For the same compound, the MIC in assay [10] is no less than 63.6 µM; in [11], greater than 63.6 µM; in assay [12], no less than 63.6 µM; in assay [13], no less than 63.6 µM.
Regarding `CC(C)C[C@H](NC(=O)[C@H](Cc1c[nH]c2ccccc12)NC(=O)[C@H](CCCCN)NC(=O)[C@H](CCCCN)NC(=O)[C@H](CC(C)C)NC(=O)[C@H](Cc1c[nH]c2ccccc12)NC(=O)[C@@H](N)CCCCN)C(N)=O` [KWLKKWL], the minimum inhibitory concentration (MIC) is no less than 79.9 µM in assay [6]; greater than 79.9 µM in [7]; no less than 79.9 µM in assay [8]; greater than 79.9 µM in assay [1]; no less than 79.9 µM in assay [9]; greater than 79.9 µM in assay [5]. The minimal inhibitory concentration (MIC) was no less than 79.9 µM in [10], greater than 79.9 µM in assay [11], no less than 79.9 µM in [12] and no less than 79.9 µM in assay [13].
Consider `CC(C)C[C@H](NC(=O)[C@H](Cc1c[nH]c2ccccc12)NC(=O)[C@H](CCCCN)NC(=O)[C@H](CC(C)C)NC(=O)[C@H](CC(C)C)NC(=O)[C@H](CCCCN)NC(=O)[C@H](CCCCN)NC(=O)[C@H](CC(C)C)NC(=O)[C@@H](N)CC(C)C)C(=O)N[C@@H](CCCCN)C(=O)N[C@@H](CCCCN)C(N)=O` [LLKKLLKWLKK], for which the MIC was 1.42 µM (≈ 2 µg/mL) in assay [6]; 2.84 µM (≈ 4 µg/mL) in assay [7]; 2.84 µM (≈ 4 µg/mL) in assay [8]; 2.84 µM (≈ 4 µg/mL) in assay [1]; 2.84 µM (≈ 4 µg/mL) in assay [9]; 5.67 µM (≈ 7.99 µg/mL) in assay [5]. Besides, the minimum inhibitory concentration (MIC) in [10] stood at 2.84 µM (≈ 4 µg/mL); in assay [11] it was 2.84 µM (≈ 4 µg/mL); in [12] it was 2.84 µM (≈ 4 µg/mL); in [13] it was 11.3 µM (≈ 16 µg/mL).
